Experimental data from patent US20190185417A1, “NOVEL ANTIBIOTICS” (priority 2016, published 2019).

Legend:
Assay type in all cases: cell-based
Gram-negative bacteria = assay: MIC by broth microdilution, overall statement in words; conditions: for effectiveness against the bacteria of Table 2: Example 2, statement in words
Procedure: (§1) The antibacterial potency of the test article(s) was measured using the in vitro broth microdilution assay under assay conditions described by the Clinical and Laboratory Standards Institute. […] The test substance was dissolved in 100% DMSO, suspended completely by sonication or vortexing, diluted by 2-fold serial titrations in the same vehicle, for a total of 11 test concentrations. A 4 μL aliquot of each dilution was added to 196 μL of broth medium seeded with the organism suspension in wells of a 96 well plate (bacterial count: 2−8×10^5 colony forming units/mL final). The final volume was 200 μL in each well and the final DMSO concentration was 2 percent. Following incubation for 1 day at 36° C., the test plates were visually examined and wells were scored for growth or complete growth inhibition to define the minimum inhibitory concentration. Each test substance was evaluated in duplicate and the results were reported as the duplicate test values. Vehicle-control and an active reference agent were used as blank and positive controls, respectively. Microorganisms tested were Acinetobacter baumannii (ATCC 17978), Enterococcus faecalis (ATCC 29212), Enterococcus faecium VanA (ATCC 700221), Escherichia coli (ATCC 25922), Escherichia coli efflux defective DEL-tolC (JW5503), Heamophilus influenzae (ATCC 49247), Klebsiella pneumoniae (ATCC 43816), Pseudomonas aeruginosa (ATCC 27853), Pseudomonas aeruginosa MDR (NTUH-974), Staphylococcus aureus (ATCC 29213), Staphylococcus aureus MRSA (ATCC 33591) and Streptococcous pneumoniae (ATCC 46919). H. influenzae was grown in Haemophilus Test Medium and S. pneumoniae was grown in cation adjusted Muller-Hinton Broth II with 5% lysed horse blood. All other microorganisms were grown in cation adjusted Muller-Hinton Broth II.
(§2) The antibacterial potency of the test article(s) was measured using the in vitro broth microdilution assay under assay conditions described by the Clinical and Laboratory Standards Institute. […] The test substance was dissolved in 100% DMSO (unless stated below), suspended completely by sonication or vortexing, diluted by 2-fold serial titrations in the same vehicle, for a total of 11 test concentrations. A 4 μL aliquot of each dilution was added to 196 μL of broth medium seeded with the organism suspension in wells of a 96 well plate (bacterial count: 2−8×10^5 colony forming units/mL final). The final volume was 200 μL in each well and the final DMSO concentration was 2 percent. Following incubation, the test plates were visually examined and wells were scored for growth or complete growth inhibition to define the minimum inhibitory concentration. Each test substance was evaluated in duplicate and the results below are the duplicate test values. Vehicle-control and an active reference agent were used as blank and positive controls, respectively.

[1] = test system: Acinetobacter baumannii (ATCC 17978); assay: MIC by broth microdilution
Procedure: as §1, §2

[2] = test system: Pseudomonas aeruginosa, MDR (NTUH-974); assay: MIC by broth microdilution; conditions: Table 2, Example 2
Procedure: as §1, §2

[3] = test system: Escherichia coli, efflux defective DEL-tolC (JW5503); assay: MIC by broth microdilution
Procedure: as §1, §2

[4] = test system: Escherichia coli (ATCC 25922); assay: MIC by broth microdilution
Procedure: as §1, §2

[5] = test system: Pseudomonas aeruginosa (ATCC 27853); assay: MIC by broth microdilution
Procedure: as §1, §2

[6] = test system: Klebsiella pneumoniae (ATCC 43816); assay: MIC by broth microdilution
Procedure: as §1, §2

[7] = test system: Enterococcus faecalis (ATCC29212); assay: MIC by broth microdilution; conditions: Table 1, Example 1
Procedure: as §1

[8] = test system: Enterococcus faecium, VanA (ATCC 700221); assay: MIC by broth microdilution; conditions: Table 1, Example 1
Procedure: as §1

[9] = test system: Staphylococcus aureus, MRSA (ATCC 33591); assay: MIC by broth microdilution; conditions: Table 1, Example 1
Procedure: as §1

[10] = test system: Staphylococcus aureus (ATCC 29213); assay: MIC by broth microdilution; conditions: Table 1, Example 1
Procedure: as §1

[11] = test system: Haemophilus influenzae (ATCC 49247); assay: MIC by broth microdilution; conditions: Table 2, Example 2
Procedure: as §2

SMILES | activity against Gram-negative bacteria (Gram-negative bacteria; Example 1, statement in words) | MIC ([1]; Table 1, Example 1) | MIC ([1]; Table 2, Example 2) | MIC [2] | MIC ([3]; Table 1, Example 1) | MIC ([3]; Table 2, Example 2) | MIC ([4]; Table 1, Example 1) | MIC ([4]; Table 2, Example 2) | MIC ([5]; Table 1, Example 1) | MIC ([5]; Table 2, Example 2) | MIC ([6]; Table 1, Example 1) | MIC ([6]; Table 2, Example 2) | MIC [7] | MIC [8] | MIC [9] | MIC [10] | MIC [11] | effectiveness against the bacteria of Table 2 (Gram-negative bacteria)
C[N+](C)(C)Cc1ccc(/C=C/c2cc(/C=C/c3ccc(C[N+](C)(C)C)cc3)cc(/C=C/c3ccc(C[N+](C)(C)C)cc3)c2)cc1.[I-].[I-].[I-] [Compound 1] | active | 128 mg/L | 128 mg/L | >128 mg/L | 32 mg/L | 32 mg/L | 64 mg/L | 64 mg/L | > 256 mg/L | >128 mg/L | 128 mg/L | 128 mg/L | 128 mg/L | 128 mg/L | 16 mg/L | 32 mg/L | >128 mg/L | 
CC(=O)ONc1ccc(CCc2cc(CCc3ccc(NOC(C)=O)cc3)cc(CCc3ccc(NOC(C)=O)cc3)c2)cc1 [Compound 9 (TSB016)] |  |  | >32.0 mg/L | >32.0 mg/L |  | >32.0 mg/L |  | >32.0 mg/L |  | >32.0 mg/L |  | >32.0 mg/L |  |  |  |  | >32.0 mg/L | 
CN(C)C(=O)c1ccc(CCc2cc(CCc3ccc(C(=O)N(C)C)cc3)cc(CCc3ccc(C(=O)N(C)C)cc3)c2)cc1 [Compound 5 (TSB032)] |  |  | >32.0 mg/L | >32.0 mg/L |  | >32.0 mg/L |  | >32.0 mg/L |  | >32.0 mg/L |  | >32.0 mg/L |  |  |  |  | >32.0 mg/L | 
NC(=O)c1ccc(CCc2cc(CCc3ccc(C(N)=O)cc3)cc(CCc3ccc(C(N)=O)cc3)c2)cc1 [Compound 6 (TSB030)] |  |  | >32.0 mg/L | >32.0 mg/L |  | >32.0 mg/L |  | >32.0 mg/L |  | >32.0 mg/L |  | >32.0 mg/L |  |  |  |  | >32.0 mg/L | 
CN(C)Cc1ccc(/C=C/c2cc(/C=C/c3ccc(CC(N)=O)cc3)cc(/C=C/c3ccc(CC(N)=O)cc3)c2)cc1 [Compound 15] |  |  | >128 mg/L | >128 mg/L |  | >128 mg/L |  | >128 mg/L |  | >128 mg/L |  | >128 mg/L |  |  |  |  | >128 mg/L | ineffective
CN(C)c1ccc(/C=C/c2cc(/C=C/c3ccc(N(C)C)cc3)cc(/C=C/c3ccc(N(C)C)cc3)c2)cc1 [Compound 10] |  |  | >128 mg/L | >128 mg/L |  | >128 mg/L |  | >128 mg/L |  | >128 mg/L |  | >128 mg/L |  |  |  |  | >128 mg/L | 
NC(=O)Cc1ccc(/C=C/c2cc(/C=C/c3ccc(CC(N)=O)cc3)cc(/C=C/c3ccc(CC(N)=O)cc3)c2)cc1 [Compound 17] |  |  | >128 mg/L | >128 mg/L |  | >128 mg/L |  | >128 mg/L |  | >128 mg/L |  | >128 mg/L |  |  |  |  | >128 mg/L | 
CN(C)Cc1ccc(/C=C/c2cc(/C=C/c3ccc(CC(=O)O)cc3)cc(/C=C/c3ccc(CC(=O)O)cc3)c2)cc1 [Compound 16] |  |  | >128 mg/L | >128 mg/L |  | >128 mg/L |  | >128 mg/L |  | >128 mg/L |  | >128 mg/L |  |  |  |  | >128 mg/L | ineffective
Nc1ccc(CCc2cc(CCc3ccc(N)cc3)cc(CCc3ccc(N)cc3)c2)cc1 [Compound 2 (TSB014)] |  |  | >32.0 mg/L | >32.0 mg/L |  | >32.0 mg/L |  | >32.0 mg/L |  | >32.0 mg/L |  | >32.0 mg/L |  |  |  |  | >32.0 mg/L | 
N#Cc1ccc(/C=C/c2cc(/C=C/c3ccc(C#N)cc3)cc(/C=C/c3ccc(C#N)cc3)c2)cc1 [Compound 3] |  |  | >128 mg/L | >128 mg/L |  | >128 mg/L |  | >128 mg/L |  | >128 mg/L |  | >128 mg/L |  |  |  |  | >128 mg/L | 
CN(C)c1ccc(CCc2cc(CCc3ccc(N(C)C)cc3)cc(CCc3ccc(N(C)C)cc3)c2)cc1 [Compound 11 (TSB010)] |  |  | >32.0 mg/L | >32.0 mg/L |  | >32.0 mg/L |  | >32.0 mg/L |  | >32.0 mg/L |  | >32.0 mg/L |  |  |  |  | >32.0 mg/L | 
CN(C)Cc1ccc(/C=C/c2cc(/C=C/c3ccc(CC(N)=O)cc3)cc(/C=C/c3ccc(CC(=O)O)cc3)c2)cc1 [Compound 14] |  |  | >128 mg/L | >128 mg/L |  | >128 mg/L |  | >128 mg/L |  | >128 mg/L |  | >128 mg/L |  |  |  |  | >128 mg/L | ineffective
N#Cc1ccc(CCc2cc(CCc3ccc(C#N)cc3)cc(CCc3ccc(C#N)cc3)c2)cc1 [Compound 4 (TSB064)] |  |  | >32.0 mg/L | >32.0 mg/L |  | >32.0 mg/L |  | >32.0 mg/L |  | >32.0 mg/L |  | >32.0 mg/L |  |  |  |  | >32.0 mg/L | 
O=[N+]([O-])c1ccc(CCc2cc(CCc3ccc([N+](=O)[O-])cc3)cc(CCc3ccc([N+](=O)[O-])cc3)c2)cc1 [Compound 8 (TSB036)] |  |  | >32.0 mg/L | >32.0 mg/L |  | >32.0 mg/L |  | >32.0 mg/L |  | >32.0 mg/L |  | >32.0 mg/L |  |  |  |  | >32.0 mg/L | 
